Values after ≈ are worked out from the molar mass of the structure shown. Positions of bridges follow the written chain, without caps; N, C: chain ends. Non-standard residues stand in square brackets, D forms with d. Residues, ends and D or L forms follow the SMILES beside them. *: point of attachment. Myristoyl = CCCCCCCCCCCCCC(=O)*; dDab = NCC[C@@H](N)C(=O)O; Dab = NCC[C@H](N)C(=O)O
Assays:
S. aureus USA300 [1] = test: Cell lysis assay (SYTOX green); type: cell-based, Staphylococcus aureus; conditions: S. aureus exposed to 8-fold MIC
Protocol: Cell lytic activity of cilagicin was evaluated using SYTOX green nucleic acid stain (Thermo Fisher, USA). Gramicidin and DMSO were used as positive and negative controls, respectively. S. aureus USA300 was grown overnight at 37° C. with shaking (200 rpm) and then diluted in fresh LB broth to an OD600nm of 0.35. 900 μL of this S. aureus USA300 suspension was mixed with 100 μL of SYTOX (17 μM in DMSO). The mixture was incubated at room temperature for 5 minutes, and then transferred into a 384-well flat bottom black microtiter plate (30 μL/well). The initial fluorescence intensity of each well was recorded using an infinite 200 PRO (Excitation/Emission=488/523 nm) at 9 second intervals for 5 minutes. […] The fluorescence intensity of each well was then continually monitored at 9 second intervals for 25 minutes and plotted by Prism 9.0. All assays were performed in biological triplicates (n=3).

Streptococcus pneumoniae = type: cell-based
Protocol: (§1) MIC assay were conducted using the protocol recommended by the Clinical and Laboratory Standards Institute.(37) Culture conditions (temperature, medium) are detailed in Table 3. All compounds were dissolved in sterile DMSO (ATCC, USA) to give a concentration of 6.4 mg/mL. Vancomycin hydrochloride was used as positive controls. Tested compounds were serially diluted across 96-well plates using a 2-fold serial dilution in a volume of 50 μL. An overnight culture of an assay strain was diluted 5,000-fold in fresh medium. 50 μL of this dilution was added into each well, giving a final volume of 100 μL in each well. Compounds were assayed at concentrations ranging from 64 μg/mL to 0.06 μg/mL. The top and bottom rows of each plate were filled with 100 μL of media to avoid edge effects. […] For Clostridium difficile plates were statically incubated under anaerobic conditions (Vinyl anaerobic chamber, 37° C., 5% H2, 5% CO2, 90% N2). For Streptococcus pneumoniae plates were statically incubated under aerobic conditions supplemented with 5% C02 (37° C.). All MICs were performed in technical duplicate (n=2) and repeated three independent times (n=3).

Staphylococcus aureus = type: cell-based; conditions: S. aureus, presence versus absence of serum (10% serum)
Protocol: as §1

Gram-positive pathogens = type: cell-based
Protocol: as §1

Klebsiella pneumoniae = type: cell-based
Protocol: as §1

Enterobacter cloacae = type: cell-based
Protocol: as §1

Streptococcus pyrogens = type: cell-based
Protocol: as §1

Enterococcus faecalis = type: cell-based
Protocol: as §1

Acinetobacter baumannii = type: cell-based
Protocol: as §1

Enterococcus faecium = type: cell-based
Protocol: as §1

Streptococcus agalactiae = type: cell-based
Protocol: as §1

[2] = tested on: Enterococcus casseliflavus; type: cell-based
Protocol: as §1

Bacillus subtilis = type: cell-based
Protocol: as §1

Pseudomonas aeruginosa = type: cell-based
Protocol: as §1

Enterococcus gallinarum = type: cell-based
Protocol: as §1

S. aureus USA300 [3] = test: Resistance studies (daily serial passage at sub-MIC); type: cell-based, Staphylococcus aureus
Protocol: A single colony of S. aureus USA300 was inoculated in 5 mL LB broth and grown overnight at 37° C. with continuous shaking (200 rpm). The overnight culture was then diluted 1:5,000 into fresh LB. 50 μL aliquots of dilute cells were transferred into individual wells of 96-well plates containing 50 μL of serially diluted cilagicin, amphomycin (AG Scientific, USA) or bacitracin (Sigma, USA). Plates were statically incubated at 37° C. After 24 hours, the MIC was recorded. […] The MIC was determined as described above. This process was repeated daily for 25 days. For bacitracin, the LB medium was supplemented with 50 μg/mL ZnCl2. For amphomycin, the medium was supplemented with 100 μg/mL CaCl2-2H2O. Experiments were performed three independent times (n=3).

S. aureus USA300 [4] = type: cell-based, Staphylococcus aureus
Protocol: The effect of lipid II biosynthesis intermediates on cilagicin's antibacterial activity was evaluated using S. aureus USA300 and the general MIC assay methods described above with the following changes. Potential antagonizing compounds were mixed with cilagicin at a constant molar ratio of 5. Cilagicin mixed with solvent alone was used as a control. Premixed solutions were dried in vacuo for 2 hours to completely remove all organic solvent. They were then resuspended in LB broth and mixed with S. aureus. All assays were run in duplicate (n=2) and repeated two independent times (n=2).

For CCCCCCCCCCCCCC(=O)N[C@H](CO)C(=O)N[C@@H]1C(=O)N[C@H](CCN)C(=O)N[C@@H](CC(=O)O)C(=O)NCC(=O)N[C@H](CC(N)=O)C(=O)N[C@H](CC(=O)O)C(=O)NCC(=O)N[C@@H](Cc2ccc(O)cc2)C(=O)N[C@@H](C(C)C)C(=O)N[C@@H](CCN)C(=O)N[C@@H](Cc2ccccc2)C(=O)O[C@@H]1C [Cilagicin] (Myristoyl-[dS]T[dDab]DG[dN][dD]GYV[Dab]F; ester 2-C), which “cell lytic activity (SYTOX fluorescence)” value (S. aureus USA300 [1]) is on record?
Its value is “No response was detected”.

And the MIC (Streptococcus pneumoniae)?
The MIC was 0.25 µg/mL (≈ 0.17 µM).

And the “antibacterial activity (MIC) in the presence of serum” value (Staphylococcus aureus)?
Its value is “significantly suppressed”.

What about the MIC (Gram-positive pathogens) of the same compound?
The MIC was 1 µg/mL (≈ 0.682 µM).

What about the MICs (Gram-positive pathogens) of the same compound?
Its MICs is ≤ 0.25 µg/mL.

And the “minimum inhibitory concentrations (MIC)” value (Gram-positive pathogens)?
The value was 0.125 to 2 µg/mL.

And the “Cilagicin MIC” value (Klebsiella pneumoniae)?
The value was >64 µg/mL.

And the “Cilagicin MIC” value (Enterobacter cloacae)?
The value was >64 µg/mL.

What about the “Cilagicin MIC” value (Streptococcus pyrogens) of the same compound?
The value was 0.125 µg/mL.

And the MIC (Streptococcus pyrogens)?
Its MIC is 0.125 µg/mL (≈ 0.0852 µM).

What about the “Cilagicin MIC” value (Enterococcus faecalis) of the same compound?
The value was 0.5 µg/mL.

What about the “Cilagicin MIC” value (Acinetobacter baumannii) of the same compound?
Its value is 8 µg/mL.

And the MIC (Acinetobacter baumannii; A. baumannii (Table 5))?
Its MIC is 8 µg/mL (≈ 5.45 µM).

What about the “Cilagicin MIC” value (Enterococcus faecium) of the same compound?
The value was 0.5 µg/mL.

And the MIC (Enterococcus faecium)?
The MIC was 0.5 µg/mL (≈ 0.341 µM).

And the “Cilagicin MIC” value (Streptococcus agalactiae)?
The value was 1 µg/mL.

What about the MIC (Streptococcus agalactiae) of the same compound?
The MIC was 1 µg/mL (≈ 0.682 µM).

What about the “Cilagicin MIC” value [2] of the same compound?
Its value is 0.125 µg/mL.

And the “Cilagicin MIC” value (Bacillus subtilis)?
Its value is 2 µg/mL.

What about the “Cilagicin MIC” value (Pseudomonas aeruginosa) of the same compound?
Its value is >64 µg/mL.

What about the “Cilagicin MIC” value (Enterococcus gallinarum) of the same compound?
Its value is 0.5 µg/mL.

What about the “maximum change in MIC (increase)” value (S. aureus USA300 [3]; S. aureus USA300, after 25 days of constant exposure) of the same compound?
Its value is 1 fold.

What about the “cross resistance of bacitracin resistant and amphomycin resistant mutants” value (S. aureus USA300 [3]; S. aureus mutants raised by serial passage) of the same compound?
Its value is “neither the highly bacitracin resistant mutants nor the highly amphomycin resistant mutants that were generated showed cross resistance”.

And the “molar ratio at which C55-P completely inhibited the bioactivity” value (S. aureus USA300 [4]; S. aureus USA300, C55-P)?
The value was ~ 1.25.

And the “molar ratio at which C55-PP gave complete inhibition” value (S. aureus USA300 [4]; S. aureus USA300, C55-PP)?
The value was ~ 2.5.

What about the “MIC in the presence of C55-P” value (S. aureus USA300 [4]; USA300) of the same compound?
Its value is ≥ 64 µg/mL.
